Like-named read-outs stand apart in the source and are kept apart here. Bounds are passed on as bounds.

Series [1] is described as follows: blood levels on daily oral administration of CoQ10 capsules to patients. Type of series: in vivo, human. The conditions noted are these: if a blood level of 3 μg/ml of whole blood is achieved on oral therapy. Here is the method: It is known from the existing clinical data from the daily oral administration of 100 mg of CoQ10 to patients (3 capsules of 33.3 mg each in soybean oil), that blood levels in the range of about 2-4 μg/ml whole blood may be achieved. These blood levels on daily oral administration of 3 capsules vary between about 1.5 and 4 μg/ml whole blood, depending upon the initial control level, the variation of oral absorption, patient compliance, etc. If a blood level of 3 μg/ml of whole blood is achieved on therapy, the amount of CoQ10 in the total blood volume would be about 15 mg. The gastrointestinal absorption of CoQ10 from 3 capsules/day is about 15% or 15-20% according to Lucker et al. (citation under Background of the Invention). However, as mentioned earlier herein, oral administration of CoQ10 is undependable and sometimes difficult.

A short description of series [2]: visible separation / stability of CoQ10 in commercial fat emulsions. Type of series: physicochemical. Here is the method:
A preferred technique of preparing formulations of the present invention involved adding 1 ml of a fat emulsion such as Intralipid, Liposyn, Soyacal, and Travemulsion to each of three tubes. With a microsyringe, 1 μl of soybean oil containing 30 μg, 15 μg and 7.5 μg of CoQ10, respectively, was added to each of the three tubes containing 1 ml the fat emulsion. The microliter of soybean oil containing these three amounts of CoQ10 was easily visible by the yellow color on the surface of the fat emulsion. The contents of these tubes were cooled to less than about 5° C. and were then sonicated for about 5 seconds in an ice bath. The sonicated CoQ10 -fat emulsion was then drawn into a first syringe through the syringe needle. The needle of the first syringe was then connected to the needle of a second syringe. The CoQ10 -fat emulsion was then passed back and forth through the needles from the first syringe to the second syringe, and this mixing was repeated about 10 times. The needles of the two syringes were connected through a rubber stopper or a tubing, which sufficed for this laboratory scale preparation.

A short description of series [3]: blood CoQ10 levels expected after intravenous administration of CoQ10-fat emulsions. Type of series: in vivo, human. The conditions noted are these: i.v., control 5 mg. The procedure:
The intravenous formulations of the present invention may be used, for example, to introduce 15 mg, 10 mg and 5 mg of CoQ10 into the total body blood volume by intravenous administration of about 500 ml containing 30 μg/ml, 15 μg/ml and 7.5 μg/ml, respectively, of CoQ10. On the basis that the control blood level of CoQ10 /total body volume is 5 mg, then the total body volume would contain 20 mg, 15 mg, and 10 mg, respectively, after the intravenous administration of the three formulations.
These three particular exemplary formulations of the present invention will allow the introduction of CoQ10 into the blood of patients to levels of 2, 3 and 4 μg/ml, respectively, for a total amount of CoQ10 /total body volume of blood of, for example, about 10, 15 and 20 mg, respectively.

The conditions of series [4]: oral, cited from earlier work; for absorption (in words): human subjects.
The conditions of series [5]: 100 mg daily (3 capsules of 33.3 mg in soybean oil), patients; cited from earlier work.
For series [6] the following is noted: oral, coronary artery by-pass graft surgery; Sunamori et al.; cited from earlier work.
The conditions of series [7]: soybean oil in soft gelatin capsules; cited from earlier work.
The conditions of series [8]: clinical use; cited from earlier work.
For series [9] the following is noted: solid particle dispersions in aqueous medium; cited from earlier work.

Turning to `COC1=C(OC)C(=O)C(C/C=C(\C)CC/C=C(\C)CC/C=C(\C)CC/C=C(\C)CC/C=C(\C)CC/C=C(\C)CC/C=C(\C)CC/C=C(\C)CC/C=C(\C)CCC=C(C)C)=C(C)C1=O` [CoQ10, 2,3-dimethoxy-5-methyl-6-decaprenyl benzoquinone], the “amount of CoQ10 in the total blood volume” value in series [1] is “about 15 mg”. Further, the “separation of CoQ10 from the emulsion” value in series [2] (30, 15 and 7.5 μg/ml of commercial fat emulsion, sonicated and passed through syringe needles) is recorded as “did not visibly separate to the surface”. The “stability of emulsions at high CoQ10 level” value in series [2] (CoQ10 levels above about 30 μg/ml) is “tend to be unstable”. Moreover, the “stability of simple combination with commercial fat emulsion” value in [2] (simple combination of CoQ10 with one of the commercial fat emulsions) is recorded as “unstable formulations from which the CoQ10 would too readily separate”. The figures for the “CoQ10 in total body blood volume after intravenous administration” value in [3] (about 500 ml containing 7.5 μg/ml) and in [3] (about 500 ml containing 30 μg/ml) were 10 mg and 20 mg, respectively. Besides, the “absorption (in words)” value is “very slow absorption” in series [4]; “slow and inefficient” in series [4] (listed as coenzyme Q10). Also, the “overall absorption of orally administered CoQ10” value in series [4] (human, Lucker et al.) is given as 10-20%. In series [4] (study period of 10 days), the “orally administered dose recovered from the feces” value is given as at most 62%. For the same compound, in series [5], the “blood levels on daily oral administration” value is 2-4 μg/ml whole blood. The “tissue concentrations of CoQ10 (in words)” value in series [6] is “failed to allow satisfactory tissue concentrations of CoQ10”. In series [7], the “stability in encapsulated soybean oil” value is “up to 6 years”. Moreover, in series [8], the clinical safety record entry is “clinical record of safety of over a decade”. The settling on standing entry in series [9] is on record as “particles containing CoQ10 fall to the bottom of the container”.

These data come from patent publication US4824669A, “Formulations of coenzyme Q10 for intravenous use” (Board of Regents, The University of Texas System, priority 1987, dated 1989).
